# Reference: patent publication US4104306A, “12A-Deoxy chelocardin” (Abbott Laboratories, priority 1976, dated 1978)
# Structures can show the parent of a compound that is named as a salt.
# Assays:
# Type in all cases: cell-based
# Enterococcus 89 = experiment: two-fold brain-heart infusion agar dilution test; settings: BHI agar dilution, 10 ml/plate, read-out: minimum inhibitory concentration (MIC)
# Method: (§1) The antibacterial activity of the above material was tested in the usual fashion, using a two-fold, brain-heart infusion agar (BHI 10 ml/plate) dilution test with 12 different organisms. The following minimum inhibitory concentrations (MIC) were determined: […]
# Escherichia coli Juhl = experiment: two-fold brain-heart infusion agar dilution test; settings: BHI agar dilution, 10 ml/plate, read-out: minimum inhibitory concentration (MIC)
# Method: as §1
# [1] = tested on: Klebsiella pneumoniae 8045; experiment: two-fold brain-heart infusion agar dilution test; settings: BHI agar dilution, 10 ml/plate, read-out: minimum inhibitory concentration (MIC)
# Method: as §1
# [2] = tested on: Pasteurella multocida 10544; experiment: two-fold brain-heart infusion agar dilution test; settings: BHI agar dilution, 10 ml/plate, read-out: minimum inhibitory concentration (MIC)
# Method: as §1
# Proteus mirabilis Fin #9 = experiment: two-fold brain-heart infusion agar dilution test; settings: BHI agar dilution, 10 ml/plate, read-out: minimum inhibitory concentration (MIC)
# Method: as §1
# [3] = tested on: Proteus vulgaris Abbott JJ; experiment: two-fold brain-heart infusion agar dilution test; settings: BHI agar dilution, 10 ml/plate, read-out: minimum inhibitory concentration (MIC)
# Method: as §1
# [4] = tested on: Pseudomonas aeruginosa BMH #10; experiment: two-fold brain-heart infusion agar dilution test; settings: BHI agar dilution, 10 ml/plate, read-out: minimum inhibitory concentration (MIC)
# Method: as §1
# [5] = tested on: Salmonella typhimurium Ed. #9; experiment: two-fold brain-heart infusion agar dilution test; settings: Salmonella enterica, BHI agar dilution, 10 ml/plate, read-out: minimum inhibitory concentration (MIC)
# Method: as §1
# Staph. aureus 45 = experiment: two-fold brain-heart infusion agar dilution test; settings: Staphylococcus aureus, BHI agar dilution, 10 ml/plate, read-out: minimum inhibitory concentration (MIC)
# Method: as §1
# Staph. aureus Smith = experiment: two-fold brain-heart infusion agar dilution test; settings: Staphylococcus aureus, BHI agar dilution, 10 ml/plate, read-out: minimum inhibitory concentration (MIC)
# Method: as §1
# [6] = tested on: Streptococcus pyrogenes C203; experiment: two-fold brain-heart infusion agar dilution test; settings: BHI agar dilution, 10 ml/plate, read-out: minimum inhibitory concentration (MIC)
# Method: as §1
# [7] = tested on: Diplococcus pneumoniae 6301; experiment: tube dilution test; settings: Streptococcus pneumoniae, broth with 20% horse serum, read-out: minimum inhibitory concentration (MIC)
# Method: The antibacterial activity of the above material was tested in the usual fashion, using a two-fold, brain-heart infusion agar (BHI 10 ml/plate) dilution test with 12 different organisms. The following minimum inhibitory concentrations (MIC) were determined: | *tube dilution test; broth container with 20% horse serum
compound,measurement,setting,value
CC(=O)C1=C(O)C(N)C2Cc3c(c(O)c4c(O)c(C)ccc4c3C)C(O)=C2C1=O (stereo not drawn) [12a-deoxychelocardin hydrobromide],MIC,Enterococcus 89,6.2 µg/mL
same,MIC,Escherichia coli Juhl,25 µg/mL
same,MIC,[1],6.2 µg/mL
same,MIC,[2],0.39 µg/mL
same,MIC,Proteus mirabilis Fin #9,6.2 µg/mL
same,MIC,[3],3.1 µg/mL
same,MIC,[4],100 µg/mL
same,MIC,[5],6.2 µg/mL
same,MIC,Staph. aureus 45,3.1 µg/mL
same,MIC,Staph. aureus Smith,3.1 µg/mL
same,MIC,[6],6.2 µg/mL
same,MIC,[7],25 µg/mL
